Source: patent US20200385371A1 (Propellon Therapeutics Inc., priority 2017, published 2020)
Each block holds one molecule with its values, some of them ahead of it.

Tests used:
[1] = system: MV4-11 cells; test: Cell proliferation assay (ATPlite); assay type: cell-based; conditions: Homo sapiens, 120 h; MV4-11 cells, five days; read-out: GI MV411 EC50
Method: MV4-11 cells were seeded into a 96-well plate at 1,000 cells/well in 150 μl medium (Alpha-MEM containing 10% FBS, 100 μg/ml Normocin, and 50 μg/ml Gentamycin, Invitrogen). A HP D300 digital dispenser was used to dose cells with DMSO or test compounds across a 10-point range of concentrations (high dose of 10 μM), and cultures were grown in a humidified 5% CO2 incubator at 37° C. After five days, plates were removed from incubator and equilibrated to room temperature. An equal volume of ATPlite assay reagent was added to each well, and samples were processed according to manufacturer's instructions (Perkin Elmer). Luminescent signal was measured using an Envision plate reader equipped with a US-Luminescence detector.

[2] = biological target: T1, WDR5 (Homo sapiens, UniProt P61964); test: Surface Plasmon Resonance (SPR) assay; assay type: binding; set-up: Full length WDR5 with an N-terminal His tag and C-terminal AviTag; His tag (N); made in house; host or cells: E. coli; conditions: read-out: SPR Kd
Method: Exemplary compounds of the application were dissolved in 100% DMSO at 10 mM, assayed fresh, and then stored at −20° C. for repeat studies and other experiments. Full length WDR5 with an N-terminal His tag and C-terminal AviTag (Avidity Inc.) was expressed in E. coli with coexpression of BirA to biotin label the protein in vivo. Purification was via Ni-NTA.
SPR studies were performed using a Biacore™ T200 instrument (GE Health Sciences Inc.). Biotinylated WDR5 protein (approximately 3000RU) was stably captured to streptavidin coupled SA chips according to the manufacture's protocol (GE Health Sciences Inc.). The running buffer used was HBS-EP (20 mM Hepes pH 7.4, 150 mM NaCl, 3 mM EDTA, 0.05% P-20) plus 5% DMSO with a flow rate of 40 μl/min. For SPR analysis, 5 different concentrations of each exemplary compound of the application were sprayed into 96 or 384 well plates using an HP D300 digital dispenser. The concentration ranged from about 195 nM to about 12 nM in a two-fold series. […] Curve fitting and KD calculations were performed with the Biacore T200 Evalutation software (GE Health Sciences Inc).

[3] = biological target: T1, WDR5; test: Fluorescence Polarization (FP) binding assay
Method: H3 (1-15) ([…]), and 9-Ala-FAM ((Ac)-[…]-(Ahx-Ahx)-K(5,6-FAM)) (where Ahx represents 6 amino hexanoic acid linkers) peptides for WDR5 were synthesized, N-terminal-labeled with isothiocyanate-fluorescein, and purified by Tufts University Core Services (Boston, Mass.). Compound binding assays were performed at a constant labeled peptide concentration of 30 or 20 nM for H3 (1-15) and 9-Ala-FAM respectively. WDR5 concentrations of 0.3 μM for H3 (1-15) and 0.05 μM for 9-Ala-FAM were used. For both the H3 (1-15) and 9-Ala-FAM peptides, 80 mM sodium phosphate buffer (pH 6.5), 20 mM KCl, and 0.008% Triton X-100 was used. For the H3 (1-15) peptide, FP assays were measured in 10 μl aliquots in 384-well Axygen plates using a Synergy 4 microplate reader (BioTek) with an excitation wavelength of 485 nm and emission wavelength of 528 nm. For the 9-Ala-FAM peptide, FP assays were measured in 125 μl aliquots in 96 well Microfluor plates using a ViewLux instrument (Perkin Elmer) with an excitation wavelength of 480 nm and emission wavelength of 540 nm. To determine Kdsp values, the data were fit to a hyperbolic function using Sigma Plot software (Systat Software). The Kdisp values represent the average of quadruplicate measurements.

Structure (SMILES): C[C@H]1CN(c2cc(F)c(C3=CCN(c4ncc(C#N)s4)C3)c(F)c2NC(=O)c2c[nH]c(=O)cc2C(F)(F)F)CCN1C [Example 96, (S)—N-(3-(1-(5-cyanothiazol-2-yl)-2,5-dihydro-1H-pyrrol-3-yl)-6-(3,4-dimethylpiperazin-1-yl)-2,4-difluorophenyl)-6-oxo-4-(trifluoromethyl)-1,6-dihydropyridine-3-carboxamide]
EC50 [1]: 70.1 nM | Kd [2]: 0.51 nM | IC50 [3]: 11.9 nM

Structure (SMILES): C[C@H]1CN(c2cc(F)c(C3=CCCN(c4ccnc(C#N)n4)C3)c(F)c2NC(=O)c2c[nH]c(=O)cc2C(F)F)CCN1C [Example 113, (S)—N-(3-(1-(2-cyanopyrimidin-4-yl)-1,2,5,6-tetrahydropyridin-3-yl)-6-(3,4-dimethylpiperazin-1-yl)-2,4-difluorophenyl)-4-(difluoromethyl)-6-oxo-1,6-dihydropyridine-3-carboxamide]
EC50 [1]: 85.9 nM | Kd [2]: 1.99 nM | IC50 [3]: 14.8 nM

Structure (SMILES): C[C@@H]1CN(c2ncc(-c3c(F)cc(N4CCN(C)[C@@H](C)C4)c(NC(=O)c4c[nH]c(=O)cc4C(F)(F)F)c3F)cn2)CCO1 [Example 127, N-(6-((S)-3,4-dimethylpiperazin-1-yl)-2,4-difluoro-3-(2-((R)-2-methylmorpholino)pyrimidin-5-yl)phenyl)-6-oxo-4-(trifluoromethyl)-1,6-dihydropyridine-3-carboxamide]
EC50 [1]: 10.2 nM | Kd [2]: 0.69 nM | IC50 [3]: 11.7 nM

Structure (SMILES): C[C@H]1CN(c2cc(F)c(C3=CCN(c4ncc(C#N)s4)CC3)c(F)c2NC(=O)c2c[nH]c(=O)cc2C(F)F)CCN1C [Example 97, (S)—N-(3-(1-(5-cyanothiazol-2-yl)-1,2,3,6-tetrahydropyridin-4-yl)-6-(3,4-dimethylpiperazin-1-yl)-2,4-difluorophenyl)-4-(difluoromethyl)-6-oxo-1,6-dihydropyridine-3-carboxamide]
EC50 [1]: 138 nM | Kd [2]: 0.78 nM | IC50 [3]: 13.6 nM

Structure (SMILES): CC(C)OC(=O)N1CCC=C(c2c(F)cc(N3C[C@@H](C)N(C)[C@@H](C)C3)c(NC(=O)c3c[nH]c(=O)cc3C(F)(F)F)c2F)C1 [Example 13, Isopropyl 5-(2,6-difluoro-3-(6-oxo-4-(trifluoromethyl)-1,6-dihydropyridine-3-carboxamido)-4-((3S,5R)-3,4,5-trimethylpiperazin-1-yl)phenyl)-3,6-dihydropyridine-1(2H)-carboxylate]
EC50 [1]: 173 nM | Kd [2]: 1.91 nM | IC50 [3]: 14.4 nM

Structure (SMILES): C[C@@H]1CN(c2ncc(-c3c(F)cc(N4CCN(C)[C@@H](C)C4)c(NC(=O)c4c[nH]c(=O)cc4C(F)(F)F)c3F)cn2)C[C@@H](C)O1 [Example 85, N-(3-(2-((2R,6R)-2,6-dimethylmorpholino)pyrimidin-5-yl)-6-((S)-3,4-dimethylpiperazin-1-yl)-2,4-difluorophenyl)-6-oxo-4-(trifluoromethyl)-1,6-dihydropyridine-3-carboxamide]
EC50 [1]: 10.3 nM | Kd [2]: 1.24 nM | IC50 [3]: 13.8 nM

Structure (SMILES): C[C@@H]1CN(c2ncc(-c3c(F)cc(N4C[C@@H](C)N(C)[C@@H](C)C4)c(NC(=O)c4c[nH]c(=O)cc4C(F)(F)F)c3F)cn2)CCO1 [Example 128, N-(2,4-difluoro-3-(2-((R)-2-methylmorpholino)pyrimidin-5-yl)-6-((3S,5R)-3,4,5-trimethylpiperazin-1-yl)phenyl)-6-oxo-4-(trifluoromethyl)-1,6-dihydropyridine-3-carboxamide]
EC50 [1]: 5.85 nM | Kd [2]: 0.69 nM | IC50 [3]: 12.8 nM

Structure (SMILES): CC(C)[C@H]1CN(c2ncc(-c3c(F)cc(N4C[C@@H](C)N(C)[C@@H](C)C4)c(NC(=O)c4c[nH]c(=O)cc4C(F)F)c3F)cn2)CCO1 [Example 122, N-(2,4-Difluoro-3-(2-((S)-2-isopropylmorpholino)pyrimidin-5-yl)-6-((3S,5R)-3,4,5-trimethylpiperazin-1-yl)phenyl)-4-(difluoromethyl)-6-oxo-1,6-dihydropyridine-3-carboxamide]
EC50 [1]: 22.1 nM | Kd [2]: 1.98 nM | IC50 [3]: 12.5 nM

Structure (SMILES): CC(C)[C@@H]1CN(c2ncc(-c3c(F)cc(N4C[C@@H](C)N(C)[C@@H](C)C4)c(NC(=O)c4c[nH]c(=O)cc4C(F)(F)F)c3F)cn2)CCO1 [Example 105, N-(2,4-difluoro-3-(2-((R)-2-isopropylmorpholino)pyrimidin-5-yl)-6-((3S,5R)-3,4,5-trimethylpiperazin-1-yl)phenyl)-6-oxo-4-(trifluoromethyl)-1,6-dihydropyridine-3-carboxamide]
EC50 [1]: 14.3 nM | Kd [2]: 3.89 nM | IC50 [3]: 14.7 nM

Second part, the molecule after the results:

EC50 [1]: 24.4 nM | Kd [2]: 1.34 nM | IC50 [3]: 22.7 nM
Structure (SMILES): C[C@H]1CN(c2ccc(-c3c(F)cc(N4CCN(C)[C@@H](C)C4)c(NC(=O)c4c[nH]c(=O)cc4C(F)F)c3F)cn2)CCO1 [Example 183, 4-(Difluoromethyl)-N-(6-((S)-3,4-dimethylpiperazin-1-yl)-2,4-difluoro-3-(6-((S)-2-methylmorpholino)pyridin-3-yl)phenyl)-6-oxo-1,6-dihydropyridine-3-carboxamide]

EC50 [1]: 254 nM | Kd [2]: 1.36 nM | IC50 [3]: 14 nM
Structure (SMILES): C[C@H]1CN(c2ncc(-c3c(F)cc(N4CCN(C)[C@@H](C)C4)c(NC(=O)c4cn(C)c(=O)cc4C(F)F)c3F)cn2)C[C@H](C)O1 [Example 160, 4-(Difluoromethyl)-N-(3-(2-((2S,6S)-2,6-dimethylmorpholino)pyrimidin-5-yl)-6-((S)-3,4-dimethylpiperazin-1-yl)-2,4-difluorophenyl)-1-methyl-6-oxo-1,6-dihydropyridine-3-carboxamide]

EC50 [1]: 24 nM | Kd [2]: 0.68 nM | IC50 [3]: 15.3 nM
Structure (SMILES): C[C@@H]1CN(c2cc(F)c(C3=CCN(c4ccnc(C#N)n4)CC3)c(F)c2NC(=O)c2c[nH]c(=O)cc2C(F)(F)F)C[C@H](C)N1C [Example 152, N-(3-(1-(2-cyanopyrimidin-4-yl)-1,2,3,6-tetrahydropyridin-4-yl)-2,4-difluoro-6-((3S,5R)-3,4,5-trimethylpiperazin-1-yl)phenyl)-6-oxo-4-(trifluoromethyl)-1,6-dihydropyridine-3-carboxamide]

EC50 [1]: 440 nM | Kd [2]: 2.2 nM | IC50 [3]: 13.9 nM
Structure (SMILES): Cc1nc(C(=O)N2CC=C(c3c(F)cc(N4CCN(C)[C@@H](C)C4)c(NC(=O)c4c[nH]c(=O)cc4C(F)F)c3F)CC2)cs1 [Example 159, (S)-4-(difluoromethyl)-N-(6-(3,4-dimethylpiperazin-1-yl)-2,4-difluoro-3-(1-(2-methylthiazole-4-carbonyl)-1,2,3,6-tetrahydropyridin-4-yl)phenyl)-6-oxo-1,6-dihydropyridine-3-carboxamide]

EC50 [1]: 70.1 nM | Kd [2]: 0.97 nM | IC50 [3]: 16.4 nM
Structure (SMILES): C[C@@H]1CN(c2cc(F)c(-c3ccc(N4CCO[C@@H](C)C4)nc3)c(F)c2NC(=O)c2c[nH]c(=O)cc2C(F)(F)F)C[C@H](C)N1C [Example 192, N-(2,4-difluoro-3-(6-((S)-2-methylmorpholino)pyridin-3-yl)-6-((3S,5R)-3,4,5-trimethylpiperazin-1-yl)phenyl)-6-oxo-4-(trifluoromethyl)-1,6-dihydropyridine-3-carboxamide]

EC50 [1]: 92 nM | Kd [2]: 0.64 nM | IC50 [3]: 11.4 nM
Structure (SMILES): Cc1sc(-c2c(F)cc(N3CCN(C)[C@@H](C)C3)c(NC(=O)c3ccc(F)cc3C(F)(F)F)c2F)nc1C(=O)N1CCCC1 [Example 154, (S)—N-(6-(3,4-dimethylpiperazin-1-yl)-2,4-difluoro-3-(5-methyl-4-(pyrrolidine-1-carbonyl)thiazol-2-yl)phenyl)-4-fluoro-2-(trifluoromethyl)benzamide]
